The record followed here is patent US20040043942A1, “Vitamin preparations for reducing oxygen consumption during physical efforts” (priority 1996, published 2004).

Assay [1] deals with two male individuals, trained for endurance cycling. Put plainly: Example 39 a): ergometer test, medicaments and Preparations applied 15 minutes before the test. Type of assay: in vivo, human. The method, then:
Analogously to Example 37, the following studies a) to c) were carried out on two male individuals, trained for endurance cycling and kept on a permanently carbohydrate-rich diet; individual A (weighing 67 kg) having a maximum oxygen uptake capacity of 3.3 l and an oxygen transport volume per heart beat of 29 ml (corresponding to 0.6 kJ), and individual B (weighing 74 kg) having a maximum oxygen uptake capacity of 4.5 l and an oxygen transport volume per heart beat of 36 ml (corresponding to 0.75 kJ). The following preparations were used, in which the indicated amounts correspond to one dose unit and which were obtained by dissolving or suspending the components in water and gelling the mixture:
H-Gly-Gly-OH was bought from Novabiochem, Läufelfingen, Switzerland. Insulin was injected subcutaneously, while the other medicaments were ingested alone or together with one of Preparations I-IV.
a) In a first study, insulin or antidiabetic sulphonylurea derivatives were applied, alone or in combination with gelatin and/or Preparation I or II, 15 minutes before the tests. In the tests, individual A was subjected to a workload of 100 W (60 r.p.m.) for 15 minutes (tests A1-A8), and individual B was subjected to a workload of 175 W (60 r.p.m.) for 10 minutes (tests B9-B29).

For assay [2], the system named is muscle glycogen synthesis. Put plainly: stimulation of glycogen synthesis and of anaerobic glucose breakdown in the muscle (general statement). Type of assay: in vivo. The conditions noted are these: even if taken together with vitamin B1 and vitamin C.

Several values for one entry are separate records, joined by “and”; a condition that tells them apart may be missing. Equal values may be shown once.

For insulin, the “effect on heat production and oxygen consumption induced by constant physical work loads (in words)” value in assay [1] (applied 15 minutes before the test) was “increase the heat production and oxygen consumption”. For the same molecule, in assay [1] (individual B, 175 W for 10 min, 15 min before: 5 I.U. insulin s.c., 2.5 mg glibenclamide alone, with 5 mg gelatin: 100 μg glibenclamide or 10 mg chlorpropamide, Prep. one dose unit), the Oxygen consumption was 32 liter and 33 liter (2×).
Turning to `O=C(CO)[C@@H](O)[C@H](O)[C@H](O)CO` [fructose], the “stimulation of glycogen synthesis and of the anaerobic glucose breakdown in the muscle (in words)” value in assay [2] is recorded as “ineffective”.
For `OC[C@H]1O[C@@](CO)(O[C@H]2O[C@H](CO)[C@@H](O)[C@H](O)[C@H]2O)[C@@H](O)[C@@H]1O` [sucrose], the “stimulation of glycogen synthesis and of the anaerobic glucose breakdown in the muscle (in words)” value in assay [2] is given as “ineffective”.
